Source: patent US12083101B2, “Biaryl derivatives as YAP/TAZ-TEAD protein-protein interaction inhibitors” (Novartis AG, priority 2020, dated 2024)
pIC50: −log10 of the molar value. Read-outs that look alike come from different tables or passages of the source.

Tests used:
[1] = test system: NCI-H2052 Tet-On shYAP_2371 pLenti6 MCAT_Luc cells; assay: Proliferation assay (resazurin), NCI-H2052; type: cell-based; conditions: 72 hours incubation
Outline: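 The NCI-H2052 line carries a Tet-inducible shRNA against the YAP1 3′UTR and an MCAT luciferase reporter. The day after seeding, it received eleven 2-fold compound dilutions at 0.1% DMSO, and viability was read by resazurin fluorescence.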

[2] = target: Avi-humanTEAD4 217-434 / Cy5 labeled humanYAP 60-100 (Homo sapiens (Human), UniProt Q15561); assay: TR-FRET YAP-TEAD4 in-vitro biochemical assay; type: binding; conditions: 1 nM Avi-humanTEAD4 217-434, 20 nM Cy5-humanYAP 60-100, 1 h room temperature
[3] = test system: NCI-H2052 Tet-On shYAP_2371 pLenti6 MCAT_Luc cells (YAP-dependent transcription); assay: YAP reporter gene activity assay (MCAT-luciferase), NCI-H2052; type: cell-based; conditions: 24 hours incubation, BrightGlo luminescence
Outline: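 Luminescence was read 5 min after BrightGlo, following 24 h at 37 °C of compound exposure (eleven 2-fold dilutions, DMSO normalized to 0.1%). Cells were NCI-H2052 with a YAP-responsive MCAT-luciferase and a Tet-inducible shRNA against YAP1 3′UTR. Cell-free background was removed, values were normalized to vehicle, and IC50 was fitted with four parameters.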

[4] = test system: MKN-45/Ubc-luc cells; assay: Reporter gene specificity control (Ubc-luciferase), MKN-45; conditions: for IC50: Homo sapiens, MKN-45, 24 h, read-out: Reporter gene assay MKN-45 IC50 [μM], MKN-45/Ubc-luc cells (YAP deleted, specificity control), 24 hours incubation; for pIC50: read-out: Reporter gene assay MKN-45 IC50, MKN-45/Ubc-luc cells (YAP deleted, specificity control), 24 hours incubation
[5] = test system: MKN-45/Ubc-luc cells; assay: Proliferation assay (resazurin), MKN-45; type: cell-based; conditions: 72 hours incubation

Chain of Avi-humanTEAD4 217-434 / Cy5 labeled humanYAP 60-100 (Q15561 217-434): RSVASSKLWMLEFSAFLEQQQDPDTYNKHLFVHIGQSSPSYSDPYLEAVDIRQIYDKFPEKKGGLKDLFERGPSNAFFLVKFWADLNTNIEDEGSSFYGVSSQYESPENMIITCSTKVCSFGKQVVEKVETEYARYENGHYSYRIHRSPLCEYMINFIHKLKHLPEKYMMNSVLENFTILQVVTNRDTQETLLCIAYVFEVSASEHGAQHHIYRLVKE

Work on `C[C@H]1c2c(cc(F)c(Cl)c2-c2c(OCCO)ccc(F)c2F)O[C@]1(CN)c1ccccc1` (atropisomer, axis not shown) [Example 124, 2-(2-((2S,3S,4S)-2-(Aminomethyl)-5-chloro-6-fluoro-3-methyl-2-phenyl-2,3-dihydrobenzofuran-4-yl)-3,4-difluorophenoxy)ethan-1-ol] yielded a GI50 ([1]; Homo sapiens, NCI-H2052, 72 h) of 1070 nM, a pIC50 [2] of 7.96 and a pIC50 ([3]; Homo sapiens, NCI-H2052, 24 h) of 5.91. It also gave an IC50 [4] greater than 10 µM and a GI50 ([5]; Homo sapiens) greater than 10000 nM.

`NC(=O)c1ccc(OCCO)c(F)c1-c1c(Cl)c(F)cc2c1[C@H](O)[C@@](CNC1CCC1)(c1ccccc1)O2` (atropisomer, axis not shown) [Example 99, 2-((2S,3S,4S)-5-Chloro-2-((cyclobutylamino)methyl)-6-fluoro-3-hydroxy-2-phenyl-2,3-dihydrobenzofuran-4-yl)-3-fluoro-4-(2-hydroxyethoxy)benzamide] showed a GI50 ([1]; Homo sapiens, NCI-H2052, 72 h) of 26 nM, a pIC50 [2] of 8.70 and a pIC50 ([3]; Homo sapiens, NCI-H2052, 24 h) of 7.64. The IC50 [4] was greater than 10 µM and the GI50 ([5]; Homo sapiens) was greater than 10000 nM.

Compound `C[C@H]1c2c(ccc(Cl)c2-c2c(C(N)=O)ccc(OC(F)F)c2F)O[C@]1(CN[C@H]1CC[C@](C)(O)CC1)c1ccccc1` (relative stereo) [Example 104b, 2-((2S,3S,4S)-5-chloro-2-((((trans)-4-hydroxy-4-methylcyclohexyl)amino)methyl)-3-methyl-2-phenyl-2,3-dihydrobenzofuran-4-yl)-4-(difluoromethoxy)-3-fluorobenzamide] has a GI50 [1] of 55 nM, a pIC50 [2] of 8.70 and a pIC50 [3] of 7.66. For the same compound, the pIC50 [4] was less than 5.00 and the GI50 [5] was greater than 10000 nM.

`COc1ccc(C(N)=O)c(-c2c(Cl)c(F)cc3c2[C@H](C)[C@@](CN)(c2ccccn2)O3)c1F` (atropisomer, axis not shown) [Example 109, 2-((2R,3S,4S)-2-(aminomethyl)-5-chloro-6-fluoro-3-methyl-2-(pyridin-2-yl)-2,3-dihydrobenzofuran-4-yl)-3-fluoro-4-methoxybenzamide] gave a GI50 ([1]; Homo sapiens, NCI-H2052, 72 h) of 86 nM, a pIC50 [2] of 8.52 and a pIC50 ([3]; Homo sapiens, NCI-H2052, 24 h) of 7.12. It also gave an IC50 [4] greater than 10 µM and a GI50 ([5]; Homo sapiens) greater than 10000 nM.

`NC(=O)c1ccc(OCCO)c(F)c1-c1c(Cl)c(F)cc2c1C[C@@](CN[C@H]1C[C@H](C(F)F)C1)(c1ccccc1)O2` (relative stereo) [Example 140b, 2-((2S,4S)-5-chloro-2-((((trans)-3-(difluoromethyl)cyclobutyl)amino)methyl)-6-fluoro-2-phenyl-2,3-dihydrobenzofuran-4-yl)-3-fluoro-4-(2-hydroxyethoxy)benzamide] showed a GI50 [1] of 29 nM, a pIC50 [2] of 8.22 and a pIC50 [3] of 7.55. The pIC50 [4] was less than 5.00 and the GI50 [5] was greater than 10000 nM.

`CNC(=O)c1ccc(OC[C@H](C)O)c(F)c1-c1c(Cl)c(F)cc2c1C[C@](c1ccccc1)([C@@H]1CCCN1)N2` (atropisomer, axis not shown) [Example 172, 2-((2S,4S)-5-Chloro-6-fluoro-2-phenyl-2-((S)-pyrrolidin-2-yl)indolin-4-yl)-3-fluoro-4-((S)-2-hydroxypropoxy)-N-methylbenzamide] gave a GI50 ([1]; Homo sapiens, NCI-H2052, 72 h) of 104 nM, a pIC50 [2] of 7.82 and a pIC50 ([3]; Homo sapiens, NCI-H2052, 24 h) of 6.84. It also gave an IC50 [4] greater than 20 µM and a GI50 ([5]; Homo sapiens) greater than 20000 nM.

With `COc1ccc(C(N)=O)c(-c2c(Cl)ccc3c2C[C@@](CN[C@H]2CC[C@@H](C(=O)O)CC2)(c2ccccc2)O3)c1F` (relative stereo) [Example 28b, (cis)-4-((((2S,4S)-4-(6-carbamoyl-2-fluoro-3-methoxyphenyl)-5-chloro-2-phenyl-2,3-dihydrobenzofuran-2-yl)methyl)amino)cyclohexanecarboxylic acid] the GI50 [1] was 148 nM, the pIC50 [2] was 8.52 and the pIC50 [3] was 7.26. For the same compound, the pIC50 [4] was less than 5.00 and the GI50 [5] was greater than 10000 nM.

In the case of `CNc1ccc(C(N)=O)c(-c2c(Cl)ccc3c2C[C@@](CN)(c2ccccc2)O3)c1F` (atropisomer, axis not shown) [Example 20, 2-((2S,4S)-2-(Aminomethyl)-5-chloro-2-phenyl-2,3-dihydrobenzofuran-4-yl)-3-fluoro-4-(methylamino)benzamide], the GI50 ([1]; Homo sapiens, NCI-H2052, 72 h) was 6880 nM, the pIC50 [2] was 6.91 and the pIC50 ([3]; Homo sapiens, NCI-H2052, 24 h) was 5.53. It also gave an IC50 [4] greater than 10 µM and a GI50 ([5]; Homo sapiens) greater than 10000 nM.

For `CS(=O)(=O)[C@H]1CC[C@@H](NC[C@@]2(c3ccccc3)Cc3c(cc(F)c(Cl)c3-c3c(C(N)=O)ccc(OC(F)F)c3F)O2)CC1` [Example 54a, 2-((2S,4S)-5-Chloro-6-fluoro-2-((((cis)-4-(methylsulfonyl)cyclohexyl)amino)methyl)-2-phenyl-2,3-dihydrobenzofuran-4-yl)-4-(difluoromethoxy)-3-fluorobenzamide], the GI50 ([1]; Homo sapiens, NCI-H2052, 72 h) was 670 nM, the pIC50 [2] was 7.12 and the pIC50 ([3]; Homo sapiens, NCI-H2052, 24 h) was 6.83. The IC50 [4] was greater than 10 µM and the GI50 ([5]; Homo sapiens) was greater than 10000 nM.

`COc1ccc(C(N)=O)c(-c2c(Cl)c(F)cc3c2C[C@](c2ccccc2)([C@@H]2CCCN2)N3)c1F` (atropisomer, axis not shown) [Example 171, 2-((2S,4S)-5-Chloro-6-fluoro-2-phenyl-2-((S)-pyrrolidin-2-yl)indolin-4-yl)-3-fluoro-4-methoxybenzamide] was tested, and the GI50 ([1]; Homo sapiens, NCI-H2052, 72 h) was 73 nM, the pIC50 [2] was 8.70 and the pIC50 ([3]; Homo sapiens, NCI-H2052, 24 h) was 6.94. It also gave an IC50 [4] of 15.5 µM and a GI50 ([5]; Homo sapiens) of 13000 nM.

`C[C@H]1c2c(ccc(Cl)c2-c2c(C(N)=O)ccc(OC(F)F)c2F)O[C@]1(CN[C@H]1CC[C@@](C)(O)CC1)c1ccccc1` (relative stereo) [Example 104a, 2-((2S,3S,4S)-5-chloro-2-((((cis)-4-hydroxy-4-methylcyclohexyl)amino)methyl)-3-methyl-2-phenyl-2,3-dihydrobenzofuran-4-yl)-4-(difluoromethoxy)-3-fluorobenzamide] showed a GI50 [1] of 144 nM, a pIC50 [2] of 8.52 and a pIC50 [3] of 7.46. It also gave a pIC50 [4] of less than 5.00 and a GI50 [5] of 6200 nM.

`NC(=O)c1ccc(OC(F)F)c(F)c1-c1c(Cl)ccc2c1C[C@@](CNC1CCCCC1)(c1ccccc1)O2` (atropisomer, axis not shown) [Example 135, 2-((2S,4S)-5-Chloro-2-((cyclohexylamino)methyl)-2-phenyl-2,3-dihydrobenzofuran-4-yl)-4-(difluoromethoxy)-3-fluorobenzamide] showed a GI50 ([1]; Homo sapiens, NCI-H2052, 72 h) of 627 nM, a pIC50 [2] of 8.15 and a pIC50 ([3]; Homo sapiens, NCI-H2052, 24 h) of 6.61. It also gave an IC50 [4] greater than 10 µM and a GI50 ([5]; Homo sapiens) of 8640 nM.

`CNC(=O)c1ccc(OC[C@H](C)O)c(F)c1-c1c(Cl)c(F)cc2c1[C@H](C)[C@](c1ccccc1)(C1CCN1)O2` (stereo partly drawn) [Example 150, 2-((2S,3S,4S)-2-(Azetidin-2-yl)-5-chloro-6-fluoro-3-methyl-2-phenyl-2,3-dihydrobenzofuran-4-yl)-3-fluoro-4-((S)-2-hydroxypropoxy)-N-methylbenzamide] showed a GI50 ([1]; Homo sapiens, NCI-H2052, 72 h) of 85 nM, a pIC50 [2] of 8.40 and a pIC50 ([3]; Homo sapiens, NCI-H2052, 24 h) of 7.13. For the same compound, the IC50 [4] was greater than 10 µM and the GI50 ([5]; Homo sapiens) was greater than 10000 nM.

`NC(=O)c1ccc(OCCO)c(F)c1-c1c(Cl)c(F)cc2c1C[C@@](CN[C@H]1C[C@@H](CO)C1)(c1ccccc1)O2` (atropisomer, axis not shown) [Example 64b, 2-((2S,4S)-5-chloro-6-fluoro-2-((((cis)-3-(hydroxymethyl)cyclobutyl)amino)methyl)-2-phenyl-2,3-dihydrobenzofuran-4-yl)-3-fluoro-4-(2-hydroxyethoxy)benzamide] was tested, and the GI50 ([1]; Homo sapiens, NCI-H2052, 72 h) was 41 nM, the pIC50 [2] was 8.52 and the pIC50 ([3]; Homo sapiens, NCI-H2052, 24 h) was 7.66. It also gave an IC50 [4] greater than 10 µM and a GI50 ([5]; Homo sapiens) greater than 10000 nM.
